Measured values: patent US20060067938A1, “Methods for the treatment of osteoarthritis and compositions thereof” (priority 2001, published 2006)
Several values for one entry are separate records, joined by “and”; a condition that tells them apart may be missing. Equal entries are not always repeated.

Legend:
Aggrecanase-1 mRNA = assay: Real time PCR, fold induction of Aggrecanase-1 mRNA in human articular chondrocytes; type: cell-based; settings: chondrocytes from one OA patient
Experimental: (§1) Chondrocytes were isolated from 2 normal and 2 OA patents. Cells alone or those over expressing the dominant negative form of Akt (retroviral mediated gene transfer) were treated with IL-1 beta, OSM or IL-1 beta+OSM with and without the PI3K inhibitor LY294002. RNA was isolated and the levels of Agg-1, Col-3 mRNA were measured by real time PCR. All treatments in four different donors were done in duplicate.
(§2) Total RNA was isolated from pooled duplicate 96-well plates using Qiagen RNeasy 96 kit (Qiagen, Valencia, Calif.) according to the manufacturer's instructions. The optional on-column Dnase I digestion was employed to eliminate contaminating genomic DNA. First strand cDNA was synthesized using random primers with the High-Capacity cDNA Archive kit (PE Applied Biosystems, Foster City, Calif.) in a 100 ul reaction volume.
(§3) Real time PCR was performed in a 384-well format on the ABI Prism 7900HT Sequence Detection System (Applied Biosystems, Foster City, Calif.) using SYBR Green PCR Master Mix (Applied Biosystems, Foster City, Calif.). The 20 ul reaction contained 5 ul cDNA, 200 nM forward and reverse primers, and SYBR Green PCR Master Mix. The default cycling program (95° C. for 10′ and 40 cycles of 95° C., 15″, 60° C., 1′) was followed by a slow ramping step by which a melting curve is generated to confirm the specificity of the PCR product and the absence of primer dimers.
(§4) Amplification of GAPDH was used to standardize the amount of sample cDNA added to the reaction. Changes in gene expression were calculated using the Comparative Ct method which makes use of a calibrator sample. This is the sample with which all others will be compared and whose value is therefore set to 1. All other values are therefore expressed relative to the calibrator. The retroviral vector containing no cDNA insert represents the calibrator sample. The amount of target, relative to the calibrator is calculated according to the formula 2^□□CT as outlined in ABI User Bulletin #2 (PE Applied Biosystems, Foster City, Calif.).

[1] = tested on: Collagenase-3 protein secretion; assay: ELISA for COL-3 protein secretion in chondrocyte supernatants; type: cell-based, human; settings: for Collagenase-3 protein in supernatant: 24 hr, control 2491 ± 147
Experimental: ELISA for COL-3—Chondrocyte culture cells are incubated in serum free media (DMEM) overnight, and then incubated for 1 hour in fresh serum free media without or with (50 ng/ml) PDGF-BB (Invitrogen-Life Technologies, Carlsbad, Calif.) is added to each well and incubated for an additional 24 hours. Cell culture supernatants are collected and the levels of COL-3 protein are determined for each treatment using Amersham (Piscataway, N.J.) human collagenase-3 ELISA. FIG. 5 depicts the ELISA of COL-3 protein secretion and inhibition by LY249002. Chondrocyte cells isolated as described above are incubated in serum free media overnight, and then incubated for 1 hour in fresh serum free medium (DMEM) with or without LY294002. Then 50 ng/ml PDGF-BB (Sigma, St. Louis, Mo.) is added to each well and incubated for an additional 24 hours. Chondrocyte cell culture supernatants are collected and the levels of COL-3 protein are determined for each treatment using the commercially available Amersham (Piscataway, N.J.) human collagenase-3 ELISA based assay.

[2] = tested on: Aggrecanase-1 (AGG-1) mRNA; assay: RT-PCR of AGG-1 mRNA in PDGF stimulated primary human chondrocytes; type: cell-based; settings: primary human chondrocytes (non-OA joints)
Experimental: (§5) cDNA from Isolated Normal and Osteoarthritic Cartilage: A quantity of 1 μg total Isolated Normal or Osteoarthritic Cartilage RNA is treated with DNase (Ambion, Austin, Tex.) in DNase buffer (Ambion, Austin, Tex. in a quantity sufficient to make 10 μl total reaction volume and heated at 37° C. for 30 minutes. The DNase enzyme is inactivated by adding EDTA and heating at 75° C. for 5 min. cDNA is then synthesized from the reaction mixture above using Oligo dT12-18 with the Superscript Preamplification System (Life Technologies, Rockville, Md.). The final reaction volume is then adjusted to 300 μl. Cyclophilin RT-PCR is performed on each sample to allow comparative normalized PI3K, PKB, AGG-1, or COL-3 gene quantitation. Reverse transcriptase polymerase chain reaction (RT-PCR) for cyclophilin is first performed using 3 μl template utilizing the Expand Long PCR System (Roche Biochemicals, Indianapolis, Ind.). Cyclophilin RT-PCR is performed on each sample for 28 cycles to prevent saturation of the PCR products, whereas 35-40 cycles is necessary to detect less abundant genes. Loading dye is added to the 50 μl RT-PCR reaction mix, 10 μl of the dyed RT-PCR reaction mix is loaded onto a 4-20% TBE gradient gel (BioRad, Hercules, Calif.)) and separated at 200V for 45 min. The gel is stained in 1×TBE (Sigma, St. Louis, Mo.) solution containing SYBR green (1:10,000) (Molecular Probes, Eugene, Oreg.) for 1 hour and then scanned on the Storm 860—Blue Fluorescence/Chemifluorescence scanner (Molecular Dynamics, Division of Amersham Pharmacia, Piscataway, N.J.). Individual bands are quantitated using ImageQuant software (Molecular Dynamics, Division of Amersham Pharmacia, Piscataway, N.J.). The fluorescence value determined for each PCR band representing a particular gene is normalized against the fluorescence value for the cyclophilin band in the same donor sample.
(§6) Induction or Inhibition of PI3KI3K/PKB In Cultured Chondrocytes: In all studies described below chondrocytes were cultured in DMEM medium with or without 10% Fetal Bovine Serum (Invitrogen Life Technologies, Carlsbad, Calif.). […]

[3] = tested on: Collagenase-3 (COL-3) mRNA; assay: RT-PCR of COL-3 mRNA in PDGF stimulated primary human chondrocytes; type: cell-based; settings: primary human chondrocytes (non-OA joints)
Experimental: as §5, §6

[4] = tested on: PI3K/PKB pathway (phospho-PKB); assay: Western blot of chondrocyte lysates probed with anti-phospho-PKB (activation of PI3K/PKB pathway by PDGF); type: cell-based; settings: primary human chondrocytes (non-OA joints), two samples
Experimental: (§7) Induction or Inhibition of PI3KI3K/PKB In Cultured Chondrocytes: In all studies described below chondrocytes were cultured in DMEM medium with or without 10% Fetal Bovine Serum (Invitrogen Life Technologies, Carlsbad, Calif.). Cultured chondrocyte cells are incubated overnight in serum free medium (DMEM) and then treated, as one of the following types of samples, 1) control samples, by incubating the cultures for 24 hour in serum free medium (DMEM) 2) induced samples, by incubating the cultures for 24 hours in serum free medium containing the PI3K/PKB inducer PDGF-BB (Invitrogen—Life Technologies Carlsbad, Calif.) or 3) PI3K/PKB inhibited samples, by pre-incubating the samples for 1 hour with the PI3K/PKB inhibitor LY294002 (Sigma, St. Louis, Mo.) and then incubating the cultures for 24 hours in serum free medium (DMEM) containing the PDGF-BB. FIG. 3 depicts activation of PI3K/PKB expression by PDGF in primary human chondrocytes. FIG. 4 depicts LY249002 (2-(4-morpholinyl)-8-phenyl-4H-1-benzopyran-4-one) inhibition of PDGF activated PI3K/PKB expression in primary human chondrocytes.
Western Blotting—Cells are incubated in serum free medium (DMEM) overnight, and then incubated for 10 minutes in fresh serum free media containing PDGF-BB (50 ng/ml)+/−LY294002 (20 μM). Cells are washed in ice cold PBS, scraped and sonicated in ice cold lysis buffer containing 50 mM Tris pH 7.4, 1% NP-40, 0.25% Na deoxycholate, 150 mM NaCl, 1 mM EGTA, 1 mM PMSF, aprotinin, leupeptin, and pepstatin (all at 1 μg/ml 1 mM Na vanadate, 1 mM NaF, and 1 μM microcystin) (Sigma, St Louis, Mo.). The protein concentration of the lysate is determined using the micro bicinchoninic acid assay (Pierce, Rockford, Ill.) and 20 μg lysate is run per lane for phospho-PKB and phospho-forkhead and 5 μg for anti-His antibody [rabbit anti-phospho-PKB-Ser473 NEB, rabbit anti-phospho-FKHRL1-Thr32 NEB, mouse anti penta-His (Qiagen, Valencia, Calif.)]. Peroxidase labeled secondary antibodies are purchased from Jackson Laboratories (Bar, Harbor, Me.). Blots are visualized with ECL reagent (Amersham, Piscataway, N.J.). […]

[5] = tested on: Collagenase-3 (MMP-13) mRNA; assay: Real time PCR, fold induction of Collagenase-3 (MMP-13) mRNA in human articular chondrocytes; type: cell-based; settings: chondrocytes from one OA patient
Experimental: as §1, §2, §3, §4

[6] = tested on: PKB pathway (phospho-FKHRL1); assay: Western blot of chondrocyte lysates probed with anti-phospho-FKHRL1; type: cell-based; settings: PDGF 50 ng/ml alone; primary human chondrocytes (non-OA joints); two samples
Experimental: as §7, with “FIG. 3 depicts activation of PI3K/PKB expression by PDGF in primary human chondrocytes. FIG. 4 depicts LY249002 (2-(4-morpholinyl)-8-phenyl-4H-1-benzopyran-4-one) inhibition of PDGF activated PI3K/PKB expression in primary human chondrocytes.” left out
Western Blotting—Cells are incubated in serum free medium (DMEM) overnight, and then incubated for 10 minutes in fresh serum free media containing PDGF-BB (50 ng/ml)+/−LY294002 (20 μM). […] The protein concentration of the lysate is determined using the micro bicinchoninic acid assay (Pierce, Rockford, Ill.) and 20 μg lysate is run per lane for phospho-PKB and phospho-forkhead and 5 μg for anti-His antibody [rabbit anti-phospho-PKB-Ser473 NEB, rabbit anti-phospho-FKHRL1-Thr32 NEB, mouse anti penta-His (Qiagen, Valencia, Calif.)]. […]

[7] = inhibitor + IL-1 + Oncostatin M
[8] = inhibitor + IL-1 + Oncostatin M, listed as LY 294002
[9] = PDGF 50 ng/ml + LY294002 20 μM, listed as LY2490002

O=c1cc(N2CCOCC2)oc2c(-c3ccccc3)cccc12 [LY294002, 2-(4-morpholinyl)-8-phenyl-4H-1-benzopyran-4-one]
Fold Induction of mRNA, Aggrecanase-1 (Aggrecanase-1 mRNA; [7]): blocked | Fold Induction of mRNA, Aggrecanase-1 (Aggrecanase-1 mRNA; [8]): 49 fold | Fold Induction of mRNA, Aggrecanase-1 (Aggrecanase-1 mRNA; inhibitor + IL-1): 22 fold | Fold Induction of mRNA, Aggrecanase-1 (Aggrecanase-1 mRNA; inhibitor + Oncostatin M): 45 fold | Fold Induction of mRNA, Aggrecanase-1 (Aggrecanase-1 mRNA; inhibitor + PDGF): 2 fold | Collagenase-3 protein in supernatant ([1]; 1 μM LY294002 in the presence of PDGF 50 ng/ml): 2374 ± 58 pg/mL | Collagenase-3 protein in supernatant ([1]; 5 μM LY294002 in the presence of PDGF 50 ng/ml): 1555 ± 104 pg/mL | Collagenase-3 protein in supernatant ([1]; 20 μM LY294002 in the presence of PDGF 50 ng/ml): 342 ± 8 pg/mL | Secretion of COL-3 protein (in words) ([1]; PDGF stimulated primary human chondrocytes): inhibits secretion of COL-3 protein | Aggrecanase-1 gene expression (PCR amplicon gel signal) ([2]; PDGF 50 ng/ml + LY294002 20 μM): 0 | Aggrecanase-1 gene expression (PCR amplicon gel signal) [2, 9]: inhibits the downstream production of mRNA for AGG-1 and COL-3 | Collagenase-3 gene expression (PCR amplicon gel signal) ([3]; PDGF 50 ng/ml + LY294002 20 μM): 302 | Collagenase-3 gene expression (PCR amplicon gel signal) [3, 9]: inhibits the downstream production of mRNA for AGG-1 and COL-3 | Anti Phospho-PKB western blot signal ([4]; PDGF 50 ng/ml + LY294002 20 μM): 4706 and 3408 | Anti Phospho-PKB western blot signal [4, 9]: decreases PDGF induced activation of PKB | Fold Induction of mRNA, Collagenase-3 [5, 7]: blocked | Fold Induction of mRNA, Collagenase-3 [5, 8]: 19 fold | Fold Induction of mRNA, Collagenase-3 ([5]; inhibitor + IL-1): 5 fold | Fold Induction of mRNA, Collagenase-3 ([5]; inhibitor + Oncostatin M): 10 fold | Fold Induction of mRNA, Collagenase-3 ([5]; inhibitor + PDGF): 2 fold

Interleukin-1 [IL-1]
Fold Induction of mRNA, Aggrecanase-1 (Aggrecanase-1 mRNA; inducer alone, untreated 2): 180 fold | Fold Induction of mRNA, Collagenase-3 ([5]; inducer alone, untreated 1): 150 fold

oncostatin M
Fold Induction of mRNA, Aggrecanase-1 (Aggrecanase-1 mRNA; inducer alone, untreated 2): 221 fold | Fold Induction of mRNA, Collagenase-3 ([5]; inducer alone, untreated 1): 63 fold

platelet-derived growth factor [PDGF]
Fold Induction of mRNA, Aggrecanase-1 (Aggrecanase-1 mRNA; inducer alone, untreated 2): 10 fold | Anti-Phospho-FKHRL1 western blot signal [6]: 15838 and 16507 | Aggrecanase-1 gene expression (PCR amplicon gel signal) ([2]; PDGF 50 ng/ml alone): 418 | Collagenase-3 gene expression (PCR amplicon gel signal) ([3]; PDGF 50 ng/ml alone): 1242 | Anti Phospho-PKB western blot signal ([4]; PDGF 50 ng/ml alone): 17940 and 22369 | Fold Induction of mRNA, Collagenase-3 ([5]; inducer alone, untreated 1): 36 fold
